Assays:
[1] = molecular target: T1, Purine nucleoside phosphorylase (Plasmodium falciparum, UniProt Q8T9Z7); experiment: Inhibition of Plasmodium falciparum PNP expressed in Escherichia coli BL21(DE3) cells by spectrophotometry
T1 sequence (Q8T9Z7 whole entry): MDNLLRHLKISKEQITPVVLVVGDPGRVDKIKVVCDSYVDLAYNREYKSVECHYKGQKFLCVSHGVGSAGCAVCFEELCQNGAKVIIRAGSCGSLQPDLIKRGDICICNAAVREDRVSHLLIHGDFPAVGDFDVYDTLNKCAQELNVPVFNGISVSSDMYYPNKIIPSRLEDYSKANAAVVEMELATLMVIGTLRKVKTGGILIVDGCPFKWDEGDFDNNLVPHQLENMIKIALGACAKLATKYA

Plasmodium falciparum = experiment: Antiplasmodial activity against erythrocytic stages of Plasmodium falciparum 3D7 after 48 hrs by SYBR green assay; type: functional, organism-based; conditions: 3D7, 48 h
[2] = molecular target: T2, Purine nucleoside phosphorylase (Homo sapiens, UniProt P00491); experiment: Inhibition of human PNP
T2 sequence (P00491 whole entry): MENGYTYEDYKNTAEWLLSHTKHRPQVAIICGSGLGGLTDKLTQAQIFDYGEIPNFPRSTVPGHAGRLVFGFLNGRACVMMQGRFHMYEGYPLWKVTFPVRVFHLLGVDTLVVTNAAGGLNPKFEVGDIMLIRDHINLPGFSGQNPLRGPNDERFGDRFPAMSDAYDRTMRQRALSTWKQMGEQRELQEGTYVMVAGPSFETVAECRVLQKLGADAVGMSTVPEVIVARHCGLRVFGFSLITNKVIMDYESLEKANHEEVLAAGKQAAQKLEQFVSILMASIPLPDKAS

Uridine phosphorylase 1 = Uridine phosphorylase 1 (Homo sapiens, UniProt Q16831); experiment: Inhibition of human uridine phosphorylase
Chain of Uridine phosphorylase 1 (Q16831 whole entry): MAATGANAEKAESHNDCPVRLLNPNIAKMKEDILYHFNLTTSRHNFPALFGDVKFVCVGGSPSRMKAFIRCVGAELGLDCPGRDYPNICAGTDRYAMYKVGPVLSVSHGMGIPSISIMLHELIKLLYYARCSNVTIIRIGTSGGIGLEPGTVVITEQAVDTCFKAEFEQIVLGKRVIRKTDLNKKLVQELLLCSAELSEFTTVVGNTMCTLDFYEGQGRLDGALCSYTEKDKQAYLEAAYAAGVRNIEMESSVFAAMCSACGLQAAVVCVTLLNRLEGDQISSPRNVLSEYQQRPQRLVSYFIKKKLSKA

SMILES	IC50 [1] [µM]	Ki [1] [µM]	EC50 (Plasmodium falciparum) [µM]	Kd [2] [µM]	Ki (Uridine phosphorylase 1) [µM]
O=c1ccn(CCCN2CCCC2)c(=O)[nH]1	230	59	> 1000	–	–
O=C1NC(=O)C(Cc2ccccc2)C(=O)N1	> 1000	–	–	–	–
O=c1ccn(CCCN2CCC[C@H]2CO)c(=O)[nH]1	712	136	375	–	–
O=c1[nH]cnc2c(CN3CCCC3)c[nH]c12	–	–	–	0.0055	–
O=c1cc[nH]c(=O)n1CCN1CCC[C@H]1CO	366	75	> 1000	–	–
O=c1ccn(CCCCN2CCCC2)c(=O)[nH]1	524	105	> 1000	–	–
O=c1ccn(CCCCN2CCC[C@H]2CO)c(=O)[nH]1	592	113	> 1000	–	–
O=C1NC(=O)N(COCCO)C(=O)C1Cc1cccc(OCc2ccccc2)c1 (stereo not drawn)	> 1000	0.0011	–	–	0.0011
O=C1NC(=O)C(Cc2cccc(OCc3ccccc3)c2)C(=O)N1	> 1000	–	–	–	2.3
O=c1cc[nH]c(=O)n1CCN1CCCC1	42	6	> 500	–	–
O=c1ccn(CCN2CCCC2)c(=O)[nH]1	141	27	> 500	–	–

Source: ChEMBL document CHEMBL1275309, “Exploring new inhibitors of Plasmodium falciparum purine nucleoside phosphorylase” (Eur J Med Chem, 2010)
